# Results from US20120244567A1, “HUMAN EMBRYONIC STEM CELLS FOR HIGH THROUGHOUT DRUG SCREENING” (BUCK INSTITUTE FOR RESEARCH ON AGING, priority 2009, published 2012).
# Structures can show the parent of a compound that is named as a salt. Where two headings read alike, the source gives them in different places.
# Legend:
# [1] = test system: hESCs and hESC-derived NSCs; experiment: Comparative ATP screening on hESCs and hESC-derived NSCs (ratio ESC/NSC or NSC/ESC); parameters: hit class in primary screen / ESC/NSC: dose or concentration left out as unconfirmed; conditions: for hit class in primary screen: NINDS primary screen, ATP relative to DMSO controls
# Text: Hits were defined based on the ability of a compound to affect ATP levels relative to DMSO controls on each plate.
# hESC-derived NSCs = experiment: ATP assay in hESC-derived NSCs (96-well, primary screen and retest); format: cell-based, human; parameters: cytotoxicity: dose or concentration left out as unconfirmed; toxicity to NSCs (reduced ATP concentrations) / ATP levels in NSC population: unit of the concentration uncertain; conditions: for toxicity to NSCs (reduced ATP concentrations): 1 (unit uncertain), 2.5 (unit uncertain) and 10 (unit uncertain), treated NSCs versus untreated NSCs, untreated and treated hESCs
# Experimental: EBs were then cultured for additional 2-3 days in suspension in neural induction media containing DMEM/F12 with Glutamax, 1×NEAA, 1×N2 and FGF2 (20 ng/ml) prior to attachment on cell culture plates. […] To obtain a pure population of NSCs, rosettes were manually isolated and dissociated into single cells using Accutase. The NSCs population was expanded in Neurobasal media containing 1×NEAA, 1×L-Glutamine (2 mM), 1×B27, LIF and FGF2 20 ng/ml.
# Media was changed every day for hESCs and every other day for NSCs and additionally changed prior to drug treatment. The cells were treated with compounds from the NINDS library diluted in […] of either ESC or NSC media to a final concentration of 2.5 mM in 0.01% DMSO. […] For all sampling, ESC and NSC plates were processed in parallel for one drug or control condition at a time.
# For ATP measurements, the media was removed, cells were washed 1× in milliQ water and reconstituted in […] ATP-Lite Mammalian Lysis Buffer and shaken for 5 minutes. Two […] aliquots of lysed cells were replated onto separate 96 well plates for later protein measurements.
# To identify compounds that are toxic to hESCs, hESC-derived NSCs, or both, we screened 720 FDA-approved drugs of the NINDS collection by testing the toxicity of each drug at a dose of 2.5 mM. For endpoint measurement of cell death caused by drug toxicity, we used a widely accepted ATP assay that measures changes in ATP level as an indicator of cellular response to cell death. In this assay, total ATP content per well was measured and normalized to the total cellular protein.
# Three concentrations of each compound (1 mM, 2.5 mM and 10 mM) were used in the retest.
# [2] = Prestwick screening data, group: Toxic To ESCs (and not NSCs)
# [3] = Prestwick screening data, group: Toxic To NSC (and not ESCs)
# [4] = NINDS screening data, […], ATP assay, 48 hours
# [5] = Prestwick screening data, group: Toxic to both but (5x) more toxic to ESCs
# [6] = Homo sapiens, NINDS primary screen, 48 hours, read-out: NSC ATP values below the control mean
compound,measurement,setting,value
Clofilium Tosylate,NSC/ESC,[1]; [2],2.184
"CN(Cc1cnc2nc(N)nc(N)c2n1)c1ccc(C(=O)N[C@@H](CCC(=O)O)C(=O)O)cc1 (racemic) [Amethopterin (R,S)]",ESC/NSC,[1]; [3],6.45
COC(=O)Nc1nc2ccc(SC(C)C)cc2[nH]1 [Methiazole],ESC/NSC,[1]; [3],3.01
CNc1ccc2oc(C[C@H]3O[C@@]4(CC[C@H]3C)O[C@H]([C@H](C)C(=O)c3ccc[nH]3)[C@H](C)C[C@H]4C)nc2c1C(=O)O [Calcimycin],ESC/NSC,[1]; [4],377.6
(−)-Levobunolol Hydrochloride,NSC/ESC,[1]; [2],1.689
CC(=O)O[C@H]1C(=O)[C@@]2(C)[C@H]([C@H](OC(=O)c3ccccc3)[C@]3(O)C[C@H](OC(=O)[C@H](O)[C@@H](NC(=O)c4ccccc4)c4ccccc4)C(C)=C1C3(C)C)[C@]1(OC(C)=O)CO[C@@H]1C[C@@H]2O [Paclitaxel],NSC/ESC,[1]; [5],5.325
"CC[C@@]1(O)C(=O)OCc2c1cc1n(c2=O)Cc2cc3ccccc3nc2-1 [Camptothecine (S,+)]",NSC/ESC,[1]; [5],14.46
C1CCC(C(CC2CCCCN2)C2CCCCC2)CC1.O=C(O)/C=C\C(=O)O (stereo not shown) [Perhexilline Maleate],hit class in primary screen,[1],NSC Killers
CN1CCN(CC(=O)N2c3ccccc3C(=O)Nc3cccnc32)CC1 [pirenzepine HCL],hit class in primary screen,[1],NSC Killers
same,cytotoxicity,hESC-derived NSCs; [6],≥ 15%
same,toxicity to NSCs (reduced ATP concentrations),hESC-derived NSCs; retest,dose-dependent specific toxicity
C[n+]1cc2c3c(ccc2c2ccc4cc5c(cc4c21)OCO5)OCO3 [Sanguinarine],ESC/NSC,"[1]; Prestwick screening data, […]",102.6
CC[C@@H](C(=O)[C@@H](C)[C@@H](O)[C@H](C)CCc1ccc(C)c(O)c1C(=O)O)[C@H]1O[C@](CC)([C@H]2CC[C@](O)(CC)[C@H](C)O2)C[C@@H]1C [Lasalocid Sodium Salt],ESC/NSC,[1]; [3],2.052
COc1ccc(CN(CCN(C)C)c2ccccn2)cc1 [Pyrilamine Maleate],NSC/ESC,[1]; [2],1.934
CC(C)(C)CC(C)(C)c1ccc(O)c(Cc2ccc(Cl)cc2Cl)c1 [Clofoctol],hit class in primary screen,[1],NSC Killers
same,cytotoxicity,hESC-derived NSCs; [6],≥ 15%
same,toxicity to NSCs (reduced ATP concentrations),hESC-derived NSCs; retest,dose-dependent specific toxicity
COc1cccc2c1C(=O)c1c(O)c3c(c(O)c1C2=O)C[C@@](O)(C(=O)CO)C[C@@H]3O[C@H]1C[C@H](N)[C@H](O)[C@H](C)O1 [Doxorubicin Hydrochloride],NSC/ESC,[1]; [5],8.906
C[C@H]1CC[C@]2(NC1)O[C@H]1C[C@H]3[C@@H]4CC[C@H]5C[C@@H](O[C@@H]6O[C@H](CO)[C@H](O[C@@H]7O[C@H](CO)[C@@H](O)[C@H](O[C@@H]8OC[C@@H](O)[C@H](O)[C@H]8O)[C@H]7O[C@@H]7O[C@H](CO)[C@@H](O)[C@H](O)[C@H]7O)[C@H](O)[C@H]6O)CC[C@]5(C)[C@H]4CC[C@]3(C)[C@H]1[C@@H]2C [Tomatine],ESC/NSC,"[1]; Prestwick screening data, […]",9.242
Cc1ccnc(NS(=O)(=O)c2ccc(N)cc2)n1 [Sulfamerazine],NSC/ESC,[1]; [2],2.003
CO[C@H]1C[C@H](O[C@@H]2/C(C)=C/C[C@@H]3C[C@@H](C[C@]4(CC[C@H](C)[C@@H](C5CCCCC5)O4)O3)OC(=O)[C@@H]3C=C(C)/C(=N/O)[C@H]4OC/C(=C\C=C\[C@@H]2C)[C@]43O)O[C@@H](C)[C@@H]1O [Selamectin],hit class in primary screen,[1],NSC Killers
same,cytotoxicity at 2500 µM,"hESC-derived NSCs; Homo sapiens, NINDS primary screen, 2.5 mM, 48 hours, read-out: NSC ATP values below the control mean",≥ 15%
same,toxicity to NSCs (reduced ATP concentrations),hESC-derived NSCs; retest,dose-dependent specific toxicity
same,effect on NSC survival among dose responsive compounds,"hESC-derived NSCs; retest, FIG. 2 panel B",most dramatic effect on NSC survival
Cl.Cl.c1ccc2c3c([nH]c2c1)C1C2CCC(C4CCCNC42)N1CC3 (stereo not shown) [Nitrarine Dihydrochloride],NSC/ESC,[1]; [2],1.949
COc1cc(-c2ccc(=O)[nH]n2)ccc1OC(F)F [Zardaverine],NSC/ESC,[1]; [2],1.976
Fc1ccc(C(OCCN2CCN(CCCc3ccccc3)CC2)c2ccc(F)cc2)cc1 [Gbr 12909 Dihydrochloride],NSC/ESC,[1]; [2],1.754
O=c1[nH]c(=O)n([C@H]2C[C@H](O)[C@@H](CO)O2)cc1C(F)(F)F [Trifluridine],ESC/NSC,[1]; [3],2.955
CC[N+]1(C)[C@@H]2CC[C@H]1CC(OC(=O)[C@@H]1CC[C@@](C(=O)OC3C[C@H]4CC[C@@H](C3)[N+]4(C)CC)(c3ccccc3)c3ccccc31)C2.[Cl-].[Cl-] (stereo partly drawn) [Beta-Belladonnine Dichloroethylate],NSC/ESC,[1]; [2],2.717
CC1=CC(=O)c2ccccc2C1=O [Menadione],hit class in primary screen,[1],NSC Killers
same,cytotoxicity,hESC-derived NSCs; [6],≥ 15%
same,toxicity to NSCs (reduced ATP concentrations),hESC-derived NSCs; retest,dose-dependent specific toxicity
C[n+]1cc2c3c(ccc2c2ccc4cc5c(cc4c21)OCO5)OCO3 [Sanguinarine Nitrate],ESC/NSC,[1]; [4],8.446
CN1Cc2c(ccc3c2OCO3)C2C(O)Cc3cc4c(cc3C21)OCO4 (stereo not drawn) [Chelidonine (+)],ESC/NSC,[1]; [3],1.999
CC1(C)O[C@@H]2C[C@H]3[C@@H]4C[C@H](F)C5=CC(=O)CC[C@]5(C)[C@H]4[C@@H](O)C[C@]3(C)[C@]2(C(=O)CO)O1 [Flurandrenolide],NSC/ESC,[1]; [2],2.308
CCCCC(CC)CN1CN(CC(CC)CCCC)CC(C)(N)C1 (stereo not shown) [Hexetidine],hit class in primary screen,[1],NSC Killers
same,cytotoxicity,hESC-derived NSCs; [6],≥ 15%
[O-][n+]1ccccc1[S-].[O-][n+]1ccccc1[S-].[Zn+2] [Pyrithione Zinc],ESC/NSC,[1],116.4
CCc1nc(N)nc(N)c1-c1ccc(Cl)cc1 [Pyrimethamine],ESC/NSC,[1]; [3],2.009
COc1ccc(C[C@H](N)C(=O)N[C@H]2[C@@H](O)[C@H](n3cnc4c(N(C)C)ncnc43)O[C@@H]2CO)cc1 [Puromycin Dihydrochloride],NSC/ESC,[1]; [5],10.84
CC(=O)Oc1ccc(C(c2ccc(OC(C)=O)cc2)c2ccccn2)cc1 [Bisacodyl],ESC/NSC,[1]; [3],2.701
"COc1ccc2c(c1OC)CN1CCc3cc4c(cc3C1C2)OCO4 (stereo not shown) [(D,L)-Tetrahydroberberine]",NSC/ESC,[1]; [2],2.336
CCN(CC)C(=S)SSC(=S)N(CC)CC [Disulfiram],NSC/ESC,[1]; [2],10.3
CCCCCCCCCCCCCCCC[n+]1ccccc1 [Cetylpyridinium Chloride],ESC/NSC,[1],109.4
C[C@@]12C(=O)OC(=O)[C@]1(C)[C@H]1CC[C@@H]2O1 [Cantharidin],ESC/NSC,"[1]; Prestwick screening data, group: Toxic to both but (>5x) more toxic to NSCs",6.171
COC1=CC(=O)C[C@@H](C)[C@]12Oc1c(Cl)c(OC)cc(OC)c1C2=O [griseofulvin],hit class in primary screen,[1],NSC Killers
same,cytotoxicity,hESC-derived NSCs; [6],≥ 15%
CCCCCCCCCCCCCCCC[N+](C)(C)C.[Br-] [Cetrimonium Bromide],ESC/NSC,[1]; [4],5.402
CCC(=O)O[C@]1(C(=O)SCF)[C@H](C)C[C@H]2[C@@H]3C[C@H](F)C4=CC(=O)C=C[C@]4(C)[C@@]3(F)[C@@H](O)C[C@@]21C [Fluticasone Propionate],NSC/ESC,[1]; [2],1.954
